Read-outs that look alike come from different tables or passages of the source.
What was measured:
[1] = target: T1, P-gp (Homo sapiens, UniProt P08183); details: Varma et al., 2003; cited from earlier work
[2] = system: HSNECC cells; type: cell-based; details: human, 24 h, 8 µM
Method: (§1) For P-gp mediated cytokine secretion testing, HSNECC cells were exposed to 0.05 mg/mL LPS stimulation for 23 hours with or without concomitant P-gp inhibition using PSC 833 (8 μM), which was applied one hour prior to LPS stimulation. Control wells were considered those exposed to culture medium alone (BEGM). A 0.4% trypan blue (Sigma, St. Louis, MO) cell survival assay was used to ensure the stimulant and inhibitor exposures were not cytotoxic. In all wells less than 20% of cells were stained blue indicating greater than 80% survival. Following the LPS and PSC 833 exposures, the media was removed from each well. Cytokine concentrations for GM-CSF, IL-6, IL-8, and IL-25 in each well were determined by ELISA according to the manufacturer guidelines (GM-CSF, IL-6, IL-8 eBioscience, San Diego, CA; IL-25 Assay Biotechnology, San Francisco, CA). Cytokine concentrations were normalized to total media protein concentrations using a Pierce BCA Protein Assay Kit.

[3] = target: T1, P-gp; test: Steroid release from nasal polyp explants after dexamethasone incubation; type: cell-based; details: polyp explants after 30-minute dexamethasone 0.05 mg/mL; PSC 833 (804) vs media alone
Method: The ability of nasal polyp explants to retain steroid after a 30-minute incubation in dexamethasone (0.05 mg/mL, n=6) was examined. Following incubation, polyp explants were placed either in media alone or in media containing the P-gp inhibitor PSC 833 (804) and the amount of steroid released by the explants into the surrounding media was measured.

[4] = system: IL-6, IL-8, GM-CSF, TSLP secretion in PNECCs; test: LPS stimulated cytokine secretion (ELISA) in PNECCs; type: cell-based, human; details: mean; for normalized IL-6 secretion: normalized to total media protein
Method: (§2) Cells were exposed to 23 hours of stimulation with LPS (0.05 mg/mL) with or without concomitant P-gp inhibition by PSC 833(8 micM), which was applied to cells 1 hour prior to LPS treatment. Control wells were considered those exposed to culture medium alone (BEGM). A 0.4% trypan blue (Sigma, St. Louis, MO) cell survival assay was used to ensure the stimulant and inhibitor exposures were not cytotoxic. In all wells less than 20% of cells were stained blue indicating greater than 80% survival. Following the LPS and PSC 833 exposures, the media was removed from each well. Cytokine concentrations for IL-6, IL-8, GM-CSF, and TSLP in each well were determined by ELISA according to the manufacturer guidelines (eBioscience, San Diego, CA). Cytokine concentrations were normalized to total media protein concentrations using a Pierce BCA Protein Assay Kit.

[5] = system: PNECCs; test: 0.4% trypan blue cell survival assay in PNECCs; type: cell-based, human
Method: PNECC cells were exposed to 23 hours of stimulation with lipopolysaccharide (LPS, 0.05 mg/mL), which is a toll-like receptor 4 agonist and capable of eliciting a strong immune responses. Control cells were considered those exposed to culture medium alone (BEGM). A 0.4% trypan blue (Sigma, St. Louis, MO) cell survival assay was used to ensure the stimulant exposures were not cytotoxic. In all wells, less than 20% of cells were stained blue indicating greater than 80% survival of the cells. Following the LPS exposures, the media was removed from each well.
as §2, with “Cytokine concentrations were normalized to total media protein concentrations using a Pierce BCA Protein Assay Kit.” left out

[6] = system: GM-CSF, IL-6, IL-8, IL-25 secretion in HSNECCs; test: P-gp mediated cytokine secretion testing (ELISA) in HSNECCs; type: cell-based, human
Method: as §1

[7] = target: T1, P-gp; test: Intracellular dexamethasone retention in primary sinonasal epithelial cells (CRSwNP); type: cell-based; details: LPS stimulated, three patients
Source text: These cultured primary sinonasal epithelial cells were stimulated with lipopolysaccharide (LPS) in the presence or absence of the P-gp inhibitor PSC 833.

[8] = system: P-gp; type: cell-based, human; details: PNECCs, mean
Method: Following removal of media from each well, the cytoplasmic and membranous protein fractions were isolated using a two-step extraction assay (DualXtract, Bulldog Bio, Inc., Portsmouth, NH). Membrane bound P-gp was quantified by subjecting the membranous fraction to ELISA (USCN Life Sciences Inc., Wuhan, P.R. China) and normalized to the cytoplasmic protein concentration.
In some wells, a specific P-gp inhibitor (PSC 833 8 micM, Tocris Bioscience, Bristol, UK) was applied to the cells 1 hour prior to LPS stimulation. Following the LPS and PSC 833 treatment, the media was removed from each well, and ELISA was performed to quantify membrane bound P-gp.

[9] = system: GM-CSF secretion; test: GM-CSF secretion in LPS stimulated CRSwNP primary sinonasal epithelial cells with dexamethasone; type: cell-based, human; details: LPS 0.0125 mg/ml
Source text: The increase in intracellular corticosteroid concentration potentiates its anti-inflammatory effect. Primary sinonasal epithelial cell culture was derived from patients with chronic sinusitis with nasal polyps (CRSwNP) and stimulated with LPS, a component of gram negative bacterial cell walls.

[10] = system: P-gp; test: Q-FIHC for membranous P-gp expression in PNECCs; type: cell-based, human; details: LPS 0.05 mg/mL, 23 h
Method: Exclusion criteria included the following: diagnosis of chronic sinusitis, use of oral steroids or immunotherapy within the preceding 4 weeks, aspirin sensitivity, ciliary dysfunction, autoimmune disease, cystic fibrosis, or any known immunodeficiency. All tissues were derived from schneiderian mucosa within the middle meatus.
Mucosal biopsies were washed and digested in Pronase for 90 minutes at 37° C. Cell suspensions were separated from particulate matter by centrifugation and resuspended in basal epithelial growth medium (BEGM) (Lonza, Basel, Switzerland). Cells were plated for 2 hours on standard tissue culture plates to remove contaminating fibroblasts. Cells were then expanded for 3-5 days on collagen coated 75 cm 2 dishes (Corning Life Sciences, Corning, NY). Once confluent, the PNECCs were trypsinized and re-seeded evenly on human collagen type IV-coated 6-well tissue culture plates. Cultures were grown to 80% confluence in BEGM prior to testing. PNECC cells intended for immunohistochemistry were grown on tissue culture treated coverslips placed within the wells. […]
Q-FIHC for membranous P-gp expression was performed using previously described techniques (Kirkeby et al., 2005). […] The mean corrected luminosity was considered the staining intensity (calculated using Image J v1.45s) divided by the total number of pixels subtended by the cells.

[11] = system: P-gp; test: ELISA of membrane-bound P-glycoprotein in CRSwNP HSNECCs; type: cell-based, human; details: LPS 0.05 mg/mL, ng/mL normalized to total cytoplasmic protein (mcg/mL) per FIG. 17B
Method: Human sinonasal nasal epithelial cell cultures (HSNECCs) from five patients were grown from nasal polyps as previously described. Briefly, polyp samples were washed and digested in Pronase for 90 minutes at 37° C. Cell suspensions were separated from particulate matter by centrifugation and resuspended in BEGM. Cells were plated for 2 hours on standard tissue culture plates to remove contaminating fibroblasts. Cells were then expanded for 3-5 days on collagen coated 75 cm^2 dishes (Corning Life Sciences, Corning, NY). Once confluent, the HSNECCs were trypsinized and re-seeded evenly on human collagen type IV-coated 6-well and 96-well tissue culture plates. 6-well cultures were grown to 80% confluence in BEGM prior to cytokine and protein analysis. 96-well plates intended for the dose dependent inhibition assay were grown to 100% confluence. Cells intended for immunohistochemistry were grown on tissue culture treated coverslips.
Membrane-bound P-glycoprotein in HSNECCs was quantified as follows. After removal of media from each well, the cytoplasmic and membranous protein fractions were isolated using a two-step extraction assay (DualXtract, Bulldog Bio, Inc., Portsmouth, NH).

[12] = LPS 0.05 mg/mL + PSC 833 8 micM
[13] = LPS 0.05 mg/mL + PSC 833 8 μM, no inhibition

T1 sequence (P08183 whole entry): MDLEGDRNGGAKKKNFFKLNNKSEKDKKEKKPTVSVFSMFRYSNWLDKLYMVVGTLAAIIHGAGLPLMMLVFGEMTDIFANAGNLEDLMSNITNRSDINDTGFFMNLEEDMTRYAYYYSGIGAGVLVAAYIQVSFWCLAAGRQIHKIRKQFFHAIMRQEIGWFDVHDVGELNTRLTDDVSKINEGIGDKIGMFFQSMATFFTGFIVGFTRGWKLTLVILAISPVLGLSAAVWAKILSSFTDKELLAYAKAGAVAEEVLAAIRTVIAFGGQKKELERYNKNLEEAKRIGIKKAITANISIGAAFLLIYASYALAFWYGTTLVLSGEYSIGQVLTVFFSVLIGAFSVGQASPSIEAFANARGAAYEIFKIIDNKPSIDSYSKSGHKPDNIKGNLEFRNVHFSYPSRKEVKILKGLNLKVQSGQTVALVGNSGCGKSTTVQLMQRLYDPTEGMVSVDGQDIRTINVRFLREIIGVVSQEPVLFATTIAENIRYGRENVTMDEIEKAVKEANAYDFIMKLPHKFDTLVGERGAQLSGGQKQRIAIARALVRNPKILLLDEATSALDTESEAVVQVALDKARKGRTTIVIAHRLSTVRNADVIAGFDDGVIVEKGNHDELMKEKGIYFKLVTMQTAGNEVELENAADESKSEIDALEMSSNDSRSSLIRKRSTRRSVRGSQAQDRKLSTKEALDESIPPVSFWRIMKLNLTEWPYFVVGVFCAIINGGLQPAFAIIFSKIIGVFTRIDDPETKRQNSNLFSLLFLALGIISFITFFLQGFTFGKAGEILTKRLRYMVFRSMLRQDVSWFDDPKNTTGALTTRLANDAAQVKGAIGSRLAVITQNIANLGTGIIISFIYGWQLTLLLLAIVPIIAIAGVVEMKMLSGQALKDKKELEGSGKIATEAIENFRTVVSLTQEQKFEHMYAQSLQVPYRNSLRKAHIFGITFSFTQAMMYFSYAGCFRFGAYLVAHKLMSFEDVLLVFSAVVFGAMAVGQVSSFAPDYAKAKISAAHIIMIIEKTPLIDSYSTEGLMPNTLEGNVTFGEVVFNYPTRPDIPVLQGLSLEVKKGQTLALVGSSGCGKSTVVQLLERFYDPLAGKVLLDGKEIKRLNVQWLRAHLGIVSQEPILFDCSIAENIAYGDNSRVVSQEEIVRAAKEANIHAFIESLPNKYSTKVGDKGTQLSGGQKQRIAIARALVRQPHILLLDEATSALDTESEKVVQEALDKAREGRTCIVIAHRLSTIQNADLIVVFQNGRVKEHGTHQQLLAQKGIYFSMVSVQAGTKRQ

For CCOC/C=C/c1ccc(-c2nc(-c3ccc(NC(C)C)cc3)c(-c3ccc(NC(C)C)cc3)[nH]2)cc1 [OC144093, 4-[2-[4-[(E)-3-ethoxyprop-1-enyl]phenyl]-4-[4-(propan-2-ylamino)phenyl]-1H-imidazol-5-yl]-N-propan-2-ylaniline], the “potency relative to the first and second-generation P-gp inhibitors” value [1] is given as “about 10 fold”.
In the case of C/C=C/C[C@@H](C)C(=O)[C@H]1C(=O)N[C@@H](C(C)C)C(=O)N(C)CC(=O)N(C)[C@@H](CC(C)C)C(=O)N[C@@H](C(C)C)C(=O)N(C)[C@@H](CC(C)C)C(=O)N[C@@H](C)C(=O)N[C@H](C)C(=O)N(C)[C@@H](CC(C)C)C(=O)N(C)[C@@H](CC(C)C)C(=O)N(C)[C@@H](C(C)C)C(=O)N1C [PSC 833, 6-[(2S,4R,6E)-4-methyl-2-(methylamino)-3-oxo-6-octenoic acid]-7-L-valine-cyclosporin A], the “cell survival (trypan blue)” value [2] is reported as “greater than 80%”, the “steroid release by explants into surrounding media” value [3] is reported as “statistically significant decrease” and the “normalized GM-CSF secretion” value [4, 12] is reported as 7.64. The “normalized TSLP secretion” value [4, 12] was 5.13, the “normalized IL-8 secretion” value ([4]; LPS 0.05 mg/mL + PSC 833 8 micM, reduction not significant (p=0.313)) was 801.09 and the “normalized IL-6 secretion” value [4, 12] was 37.60. The “cell survival (trypan blue)” value ([5]; human, 24 h, 8 µM) was “greater than 80%”, the “secretion of GM-CSF normalized to total media protein” value ([6]; LPS 0.05 mg/mL + PSC 833 8 μM) was 8.47+/−3.28 pcg/mL normalized to total med and the “secretion of IL-6 normalized to total media protein” value ([6]; LPS 0.05 mg/mL + PSC 833 8 μM) was 39.94+/−31.07 pcg/mL normalized to total med. The “secretion of IL-8 normalized to total media protein” value [6, 13] was 1608.41+/−471.94 pcg/mL normalized to total med, the “secretion of IL-25 normalized to total media protein” value [6, 13] was 0.073+/−0.038 pcg/mL normalized to total med and the “intracellular dexamethasone retention relative to dexamethasone alone” value [7] was “increased intracellular dexamethasone retention”. For the same compound, the “normalized membranous P-gp (ELISA, normalized to cytoplasmic protein)” value ([8]; LPS + PSC 833 8 micM applied 1 hour prior to LPS, not significant vs LPS alone (p=0.115)) was 70.40 and the “GM-CSF secretion compared to dexamethasone treatment alone” value ([9]; PSC833 (804) + dexamethasone 0.1 mg/mL) was “reduced GM-CSF secretion”.
In the case of COc1cc2c(cc1OC)CN(CCc1ccc(NC(=O)c3cc(OC)c(OC)cc3NC(=O)c3cnc4ccccc4c3)cc1)CC2 [XR9576, N-[2-[[4-[2-(6,7-Dimethoxy-3,4-dihydro-1H-isoquinolin-2-yl)ethyl]phenyl]carbamoyl]-4,5-dimethoxyphenyl]quinoline-3-carboxamide], the “potency relative to the first and second-generation P-gp inhibitors” value [1] is listed as “about 10 fold”.
With lipopolysaccharide [LPS] the “mean corrected luminosity of membranous P-gp (Q-FIHC)” value [10] was 9.64, the “normalized GM-CSF secretion” value ([4]; LPS 0.05 mg/mL alone, 23 h) was 39.92 and the “normalized IL-8 secretion” value ([4]; LPS 0.05 mg/mL alone, 23 h) was 912.91. For the same compound, the “normalized TSLP secretion” value ([4]; LPS 0.05 mg/mL alone, 23 h) was 6.65, the “normalized IL-6 secretion” value ([4]; LPS 0.05 mg/mL alone, 23 h) was 79.67 and the “cell survival (trypan blue)” value ([5]; PNECCs, LPS 0.05 mg/mL, 23 hours) was “greater than 80%”. For the same compound, the “secretion of GM-CSF normalized to total media protein” value ([6]; LPS 0.05 mg/mL alone, 23 hours) was 45.21+/−41.39 pcg/mL normalized to total med, the “secretion of IL-6 normalized to total media protein” value ([6]; LPS 0.05 mg/mL alone, 23 hours) was 63.16+/−36.37 pcg/mL normalized to total med and the “secretion of IL-8 normalized to total media protein” value ([6]; LPS 0.05 mg/mL alone, 23 hours) was 1041.17+/−550.52 pcg/mL normalized to total med. For the same compound, the “secretion of IL-25 normalized to total media protein” value ([6]; LPS 0.05 mg/mL alone, 23 hours) was 0.075+/−0.039 pcg/mL normalized to total med, the “mean normalized concentration of membranous P-gp (ELISA)” value [11] was 22.23+/−10.22 and the “normalized membranous P-gp (ELISA, normalized to cytoplasmic protein)” value ([8]; LPS 0.05 mg/mL alone, 23 h) was 19.63. For the same compound, the “GM-CSF secretion versus unstimulated control cells” value [9] was “increased GM-CSF secretion”.

From patent US12268726B2, “Treatment of rhinosinusitis with P-glycoprotein inhibitors” (Massachusetts Eye and Ear Infirmary, priority 2012, dated 2025)
